We go through 23 molecules from patent publication US20240300976A1, “COMPOUNDS AS MODULATORS OF ENDOPLASMIC RETICULUM AMINOPEPTIDASE 1 (ERAP1)” (GREY WOLF THERAPEUTICS LIMITED, priority 2020, published 2024).

The target in this assay is T1, ERAP1 (Homo sapiens, UniProt Q9NZ08).
T1 construct: Purified ERAP1(37-941)-10His (ERAP1); 10His (C)
Kind of assay: ERAP1 mediated hydrolysis of an amide substrate (10-mer inhibition assay), biochemical system. The settings on record: 10-mer substrate, incubated at 23° C. for 1 h, excitation 279 nm and emission 355 nm; read-out: IC50 vs Decapeptide WRVYEKC(Dnp)ALK-acid (where Dnp is Dinitrophenyl maleimide) (10-mer). An excerpt: This peptide has minimal fluorescence as the N-terminal tryptophan residue's fluorescence is quenched by the dinitrophenol (DNP) residue within the peptide. However, as ERAP1 hydrolyses the N-terminal amide bond and tryptophan is released this internal quenching is lost and the reaction is monitored by the increase in tryptophan fluorescence over the course of the assay. For the purposes of this application this assay is referred to as the “1 Omer inhibition assay” and compound potencies are calculated and expressed as 1050 as would be familiar to a person skilled in the art.
Biological Assay 1: ERAP1 Mediated Hydrolysis of an Amide Substrate Measured in a Biochemical System
• 1× Assay buffer (AB): 25 mM Bis-tris propane, 0.05% w/v Hydroxypropylmethylcellulose pH 7.75 made with Optima grade water • Decapeptide WRVYEKC(Dnp)ALK-acid (where Dnp is Dinitrophenyl maleimide) (10-mer) • L-Leucine 7-amido-4-methylcoumarin (L-AMC) • Purified ERAP1(37-941)-10His (ERAP1)
12.5 μL ERAP1 enzyme in 1×AB was combined with 250 nL test compound in DMSO. 12.5 μL of either 240 μM L-AMC in 1×AB or 100 μM 10-mer in 1×AB was added to the reaction and incubated at 23° C. for 1 h. For detection, plates were read at excitation 365 nm and emission 442 nm (L-AMC) or excitation 279 nm and emission 355 nm (10-mer). Compound IC50 was determined using a 4-parameter equation.

Molecules are shown by their SMILES. Where only a bound is given, the exact number is not on record here.

T1 sequence (Q9NZ08 37-941): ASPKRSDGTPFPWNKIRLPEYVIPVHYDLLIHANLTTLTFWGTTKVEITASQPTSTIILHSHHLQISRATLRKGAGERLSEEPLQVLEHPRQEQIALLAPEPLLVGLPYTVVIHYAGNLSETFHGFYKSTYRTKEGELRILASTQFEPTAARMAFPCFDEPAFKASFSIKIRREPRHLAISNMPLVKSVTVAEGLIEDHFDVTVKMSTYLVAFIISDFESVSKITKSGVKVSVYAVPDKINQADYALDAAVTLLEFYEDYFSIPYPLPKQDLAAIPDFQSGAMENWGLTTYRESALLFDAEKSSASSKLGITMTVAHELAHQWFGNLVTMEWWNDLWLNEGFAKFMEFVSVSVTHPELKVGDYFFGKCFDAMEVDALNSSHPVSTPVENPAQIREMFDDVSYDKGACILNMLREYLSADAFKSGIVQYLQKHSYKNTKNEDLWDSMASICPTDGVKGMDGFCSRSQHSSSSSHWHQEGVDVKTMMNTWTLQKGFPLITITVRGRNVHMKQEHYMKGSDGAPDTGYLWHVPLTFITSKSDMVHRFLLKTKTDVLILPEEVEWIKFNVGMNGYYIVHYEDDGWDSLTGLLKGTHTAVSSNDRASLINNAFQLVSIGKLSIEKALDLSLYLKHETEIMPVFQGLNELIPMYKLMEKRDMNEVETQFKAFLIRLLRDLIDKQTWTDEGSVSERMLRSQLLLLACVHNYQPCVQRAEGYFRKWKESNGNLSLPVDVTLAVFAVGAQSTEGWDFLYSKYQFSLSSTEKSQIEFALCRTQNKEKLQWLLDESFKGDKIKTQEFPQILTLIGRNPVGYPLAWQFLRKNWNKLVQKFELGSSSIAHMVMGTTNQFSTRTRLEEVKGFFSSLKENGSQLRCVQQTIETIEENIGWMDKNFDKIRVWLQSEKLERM

The term IC50 denotes the point on the concentration scale where inhibition reaches its midpoint. Turning to `N#Cc1ccc2c(c1)NS(=O)(=O)c1cc(C(=O)O)ccc1OCCC1CCCCN21` (single isomer, unassigned) [Example 7, 2-cyano-7,8,9,9a,10,11-hexahydro-6H, 18H-dibenzo[b,f]pyrido[1,2-h][1]oxa[4]thia[5,8]diazacycloundecine-15-carboxylic acid 17,17-dioxide], the 50% inhibitory concentration (IC50) was above 1000 nM. Then `N#Cc1ccc2c(c1)NS(=O)(=O)c1cc(C(=O)O)ccc1OCCCC1CCCCN21` (single isomer, unassigned) [Example 8, 2-cyano-6,7,8,9,9a,10,11,12-octahydro-19H-dibenzo[b,f]pyrido[1,2-h][1]oxa[4]thia[5,8]diazacyclododecine-16-carboxylic acid 18,18-dioxide], with below 250 nM. As to `N#Cc1ccc2c(c1)NS(=O)(=O)c1cc(C(=O)O)ccc1OCCCC1CCCCN21` (single isomer, unassigned) [Example 9, 2-cyano-6,7,8,9,9a,10,11,12-octahydro-19H-dibenzo[b,f]pyrido[1,2-h][1]oxa[4]thia[5,8]diazacyclododecine-16-carboxylic acid 18,18-dioxide], the IC50 is below 250 nM. In the case of `N#Cc1ccc2c(c1)NS(=O)(=O)c1cc(C(=O)O)ccc1OCC1CCCCN21` (single isomer, unassigned) [Example 10, 8-cyano-12,13,14,15,15a,16-hexahydro-6H-dibenzo[b,f]pyrido[1,2-h][1,4,5,8]oxathiadiazecine-3-carboxylic acid 5,5-dioxide] it was below 250 nM. Regarding `N#Cc1ccc2c(c1)NS(=O)(=O)c1cc(C(=O)O)ccc1OCC1CCCCN21` (single isomer, unassigned) [Example 11, 8-cyano-12,13,14,15,15a,16-hexahydro-6H-dibenzo[b,f]pyrido[1,2-h][1,4,5,8]oxathiadiazecine-3-carboxylic acid 5,5-dioxide], the IC50 fell in the range of 250 to 1000 nM.

In the case of `N#Cc1ccc2c(c1)NS(=O)(=O)c1cc(C(=O)O)ccc1OCCCCC1CCCCN21` (single isomer, unassigned) [Example 12, 2-cyano-7,8,9,9a,10,11,12,13-octahydro-6H,20H-dibenzo[b,f]pyrido[1,2-h][1]oxa[4]thia[5,8]diazacyclotridecine-17-carboxylic acid 19,19-dioxide], the half-inhibitory concentration (IC50) fell in the range of 250 to 1000 nM. Then `N#Cc1ccc2c(c1)NS(=O)(=O)c1cc(C(=O)O)ccc1OCCCCC1CCCCN21` (single isomer, unassigned) [Example 13, 2-cyano-7,8,9,9a,10,11,12,13-octahydro-6H,20H-dibenzo[b,f]pyrido[1,2-h][1]oxa[4]thia[5,8]diazacyclotridecine-17-carboxylic acid 19,19-dioxide], with below 250 nM; and `N#Cc1cc2c(cc1Cl)N1CCCCC1COc1ccc(C(=O)O)cc1S(=O)(=O)N2` (single isomer, unassigned) [Example 16, 9-chloro-8-cyano-12,13,14,15,15a,16-hexahydro-6H-dibenzo[b,f]pyrido[1,2-h][1,4,5,8]oxathiadiazecine-3-carboxylic acid 5,5-dioxide], with above 1000 nM. On to `N#Cc1cc2c(cc1Cl)N1CCCCC1COc1ccc(C(=O)O)cc1S(=O)(=O)N2` (single isomer, unassigned) [Example 17, 9-chloro-8-cyano-12,13,14,15,15a,16-hexahydro-6H-dibenzo[b,f]pyrido[1,2-h][1,4,5,8]oxathiadiazecine-3-carboxylic acid 5,5-dioxide], for which the IC50 was below 250 nM. Then `CS(=O)(=O)c1ccc2c(c1)NS(=O)(=O)c1cc(C(=O)O)ccc1OCC1CCCCN21` (single isomer, unassigned) [Example 19, 8-(methylsulfonyl)-12,13,14,15,15a,16-hexahydro-6H-dibenzo[b,f]pyrido[1,2-h][1,4,5,8]oxathiadiazecine-3-carboxylic acid 5,5-dioxide], with below 250 nM. Then `CS(=O)(=O)c1ccc2c(c1)NS(=O)(=O)c1cc(C(=O)O)ccc1OCC1CCCCN21` (single isomer, unassigned) [Example 20, 8-(methylsulfonyl)-12,13,14,15,15a,16-hexahydro-6H-dibenzo[b,f]pyrido[1,2-h][1,4,5,8]oxathiadiazecine-3-carboxylic acid 5,5-dioxide], with above 1000 nM; and `N#Cc1cc2c(cc1Cl)N1CCCCC1CCCCOc1ccc(C(=O)O)cc1S(=O)(=O)N2` (single isomer, unassigned) [Example 26, 3-chloro-2-cyano-7,8,9,9a,10,11,12,13-octahydro-6H, 20H-dibenzo[b,f]pyrido[1,2-h][1]oxa[4]thia[5,8]diazacyclotridecine-17-carboxylic acid 19,19-dioxide], with below 250 nM.

On to `N#Cc1cc2c(cc1Cl)N1CCCCC1CCCCOc1ccc(C(=O)O)cc1S(=O)(=O)N2` (single isomer, unassigned) [Example 27, 3-chloro-2-cyano-7,8,9,9a,10,11,12,13-octahydro-6H, 20H-dibenzo[b,f]pyrido[1,2-h][1]oxa[4]thia[5,8]diazacyclotridecine-17-carboxylic acid 19,19-dioxide], for which the IC50 was below 250 nM.

Turning to `N#Cc1ccc2c(c1)NS(=O)(=O)c1cc(C(=O)O)ccc1OC/C=C/CC1CCCCN21` (single isomer, unassigned) [Example 32, (E)-2-cyano-7,8,9,9a,10,13-hexahydro-6H, 20H-dibenzo[b,f]pyrido[1,2-h][1]oxa[4]thia[5,8]diazacyclotridecine-17-carboxylic acid 19,19-dioxide], the IC50 was below 250 nM. With `N#Cc1ccc2c(c1)NS(=O)(=O)c1cc(C(=O)O)ccc1OC/C=C/CC1CCCCN21` (single isomer, unassigned) [Example 33, (E)-2-cyano-7,8,9,9a,10,13-hexahydro-6H, 20H-dibenzo[b,f]pyrido[1,2-h][1]oxa[4]thia[5,8]diazacyclotridecine-17-carboxylic acid 19,19-dioxide], the IC50 is above 1000 nM. In the case of `N#Cc1cc2c(cc1F)N1CCCCC1COc1ccc(C(=O)O)cc1S(=O)(=O)N2` (single isomer, unassigned) [Example 37, 8-cyano-9-fluoro-12,13,14,15,15a,16-hexahydro-6H-dibenzo[b,f]pyrido[1,2-h][1,4,5,8]oxathiadiazecine-3-carboxylic acid 5,5-dioxide] it was above 1000 nM; in that of `N#Cc1cc2c(cc1F)N1CCCCC1COc1ccc(C(=O)O)cc1S(=O)(=O)N2` (single isomer, unassigned) [Example 38, 8-cyano-9-fluoro-12,13,14,15,15a,16-hexahydro-6H-dibenzo[b,f]pyrido[1,2-h][1,4,5,8]oxathiadiazecine-3-carboxylic acid 5,5-dioxide], below 250 nM.

Take `CS(=O)(=O)c1cc2c(cc1F)N1CCCCC1COc1ccc(C(=O)O)cc1S(=O)(=O)N2` (single isomer, unassigned) [Example 39, 9-fluoro-8-(methylsulfonyl)-12,13,14,15,15a,16-hexahydro-6H-dibenzo[b,f]pyrido[1,2-h][1,4,5,8]oxathiadiazecine-3-carboxylic acid 5,5-dioxide]: the IC50 is below 250 nM. For the molecule `CS(=O)(=O)c1cc2c(cc1F)N1CCCCC1COc1ccc(C(=O)O)cc1S(=O)(=O)N2` (single isomer, unassigned) [Example 40, 9-fluoro-8-(methylsulfonyl)-12,13,14,15,15a,16-hexahydro-6H-dibenzo[b,f]pyrido[1,2-h][1,4,5,8]oxathiadiazecine-3-carboxylic acid 5,5-dioxide], the IC50 was above 1000 nM. Consider `N#Cc1cc2c(cc1F)N1CCCCC1CCCOc1ccc(C(=O)O)cc1S(=O)(=O)N2` (single isomer, unassigned) [Example 41, 2-cyano-3-fluoro-6,7,8,9,9a,10,11,12-octahydro-19H-dibenzo[b,f]pyrido[1,2-h][1]oxa[4]thia[5,8]diazacyclododecine-16-carboxylic acid 18,18-dioxide], for which the IC50 is below 250 nM. Then `N#Cc1cc2c(cc1F)N1CCCCC1CCCOc1ccc(C(=O)O)cc1S(=O)(=O)N2` (single isomer, unassigned) [Example 42, 2-cyano-3-fluoro-6,7,8,9,9a,10,11,12-octahydro-19H-dibenzo[b,f]pyrido[1,2-h][1]oxa[4]thia[5,8]diazacyclododecine-16-carboxylic acid 18,18-dioxide], with below 250 nM. As to `CS(=O)(=O)c1cc2c(cc1F)N1CCCCC1CCCCOc1ccc(C(=O)O)cc1S(=O)(=O)N2` (single isomer, unassigned) [Example 43, 3-fluoro-2-(methylsulfonyl)-7,8,9,9a,10,11,12,13-octahydro-6H, 20H-dibenzo[b,f]pyrido[1,2-h][1]oxa[4]thia[5,8]diazacyclotridecine-17-carboxylic acid 19,19-dioxide], the IC50 was below 250 nM. In the case of `CS(=O)(=O)c1cc2c(cc1F)N1CCCCC1CCCCOc1ccc(C(=O)O)cc1S(=O)(=O)N2` (single isomer, unassigned) [Example 44, 3-fluoro-2-(methylsulfonyl)-7,8,9,9a,10,11,12,13-octahydro-6H, 20H-dibenzo[b,f]pyrido[1,2-h][1]oxa[4]thia[5,8]diazacyclotridecine-17-carboxylic acid 19,19-dioxide] it was 250 to 1000 nM.
